The source made the active and inactive calls. The calls are words filed in the database; no cut-off is given here.
What was measured:
[1] = test system: MIA PaCa-2; experiment: Induction of cell arrest in human MIA PaCa-2 cells assessed as necrotic cells at 500 nM measured after 4 days by Annexin V-FITC and propidium iodide (PI) staining based assay (reference value: 0.82%); type: functional; details: time 4 day
[2] = test system: MIA PaCa-2; experiment: Induction of cell arrest in human MIA PaCa-2 cells assessed as early apoptotic cells at 100 nM measured after 4 days by Annexin V-FITC and propidium iodide (PI) staining based assay (reference value: 1.07%); type: functional; details: time 4 day
[3] = test system: MIA PaCa-2; experiment: Reduction of protein complexes of mitochondrial electron transport chain in human MIA PaCa-2 cells reduction in UQCRC2 protein level by Western blot analysis; type: functional, cell-based; details: dose 0.001-5 µM
[4] = test system: MIA PaCa-2; experiment: Induction of cell arrest in human MIA PaCa-2 cells assessed as accumulation of cells at S phase at 50 nM measured after 96 hrs by PI staining based flow cytometry (reference value: 16.8%); type: functional
[5] = test system: MIA PaCa-2; experiment: Antitumor activity against human MIA PaCa-2 cells xenografted in BALB/c nude mouse assessed as reduction in Ki67 protein expression at 25 to 100 mg/kg, iv once daily for 25 consecutive day after 2 weeks of cells injection by immunohistochemical analysis; type: functional, organism-based; details: dose 25-100 mg/kg
[6] = test system: CAPAN-1; experiment: Antiproliferative activity against human CAPAN-1 cells assessed as cell viability measured after 168 hrs incubation by SRB assay; type: functional, cell-based; details: CAPAN-1, 168 h
[7] = Toxicity in BALB/c mouse xenografted with human MIA PaCa-2 cells assessed as pathological change in heart at 25 to 100 mg/kg, iv once daily for 25 consecutive day after 2 weeks of cells injection by H and E staining based optical microscopic analysis; type: organism-based; details: in vivo, 336 h, dose 25-100 mg/kg
[8] = test system: MIA PaCa-2; experiment: Effect on ATP5A protein complexes in human MIA PaCa-2 cells reduction in NDUFB8 protein level at 0.01 to 10 uM by Western blot analysis; type: functional, cell-based; details: dose 0.01-10 µM
[9] = test system: MIA PaCa-2; experiment: Induction of cell arrest in human MIA PaCa-2 cells assessed as accumulation of cells at G1 phase at 50 nM measured after 96 hrs by PI staining based flow cytometry (reference value: 64%); type: functional
[10] = test system: MIA PaCa-2; experiment: Inhibition of colony formation in human MIA PaCa-2 cells assessed as decrease in size of colony at 5 nM incubated for 14 days by crystal violet staining based assay; type: functional, cell-based; details: time 14.0 day
[11] = test system: MIA PaCa-2; experiment: Reduction in spare oxygen consumption rate (OCR) in human MIA PaCa-2 cells incubated for 168 hrs; type: functional, cell-based; details: dose 1-200 nM
[12] = test system: MIA PaCa-2; experiment: Inhibition of RNA pol II in human MIA PaCa-2 cells assessed as effect on 25S RNA level at 0.1 to 1 uM measured after 12 hrs by RT-qPCR analysis; type: cell-based; details: dose 0.1-1 µM
[13] = test system: MIA PaCa-2; experiment: Reduction of protein complexes of mitochondrial electron transport chain in human MIA PaCa-2 cells reduction in MTCO1 protein level by Western blot analysis; type: functional, cell-based; details: dose 0.001-5 µM
[14] = test system: MIA PaCa-2; experiment: Induction of cell arrest in human MIA PaCa-2 cells assessed as viable cells at 200 nM measured after 4 days by Annexin V-FITC and propidium iodide (PI) staining based assay (reference value: 94.9%); type: functional; details: MIA PaCa-2, 96 h, time 4 day, read-out: Activity
[15] = test system: MIA PaCa-2; experiment: Induction of cell arrest in human MIA PaCa-2 cells assessed as necrotic cells at 25 nM measured after 4 days by Annexin V-FITC and propidium iodide (PI) staining based assay (reference value: 0.82%); type: functional; details: time 4 day
[16] = test system: MIA PaCa-2; experiment: Induction of cell arrest in human MIA PaCa-2 cells assessed as viable cells at 100 nM measured after 4 days by Annexin V-FITC and propidium iodide (PI) staining based assay (reference value: 94.9%); type: functional; details: MIA PaCa-2, 96 h, time 4 day, read-out: Activity
[17] = test system: MIA PaCa-2; experiment: Down-regulation of ND1 gene expression in human MIA PaCa-2 cells at 0.1 to 1 uM measured after 12 hrs by RT-qPCR analysis; type: functional, cell-based; details: dose 0.1-1 µM
[18] = test system: MIA PaCa-2; experiment: Induction of cell arrest in human MIA PaCa-2 cells assessed as accumulation of cells at G1 phase at 500 nM measured after 96 hrs by PI staining based flow cytometry (reference value: 64%); type: functional
[19] = test system: MIA PaCa-2; experiment: Induction of cell arrest in human MIA PaCa-2 cells assessed as accumulation of cells at S phase at 200 nM measured after 96 hrs by PI staining based flow cytometry (reference value: 16.8%); type: functional
[20] = Toxicity in BALB/c mouse xenografted with human MIA PaCa-2 cells assessed as pathological change in liver at 25 to 100 mg/kg, iv once daily for 25 consecutive day after 2 weeks of cells injection by H and E staining based optical microscopic analysis; type: organism-based; details: in vivo, 336 h, dose 25-100 mg/kg
[21] = test system: MIA PaCa-2; experiment: In vivo antitumor activity against human MIA PaCa-2 cells xenografted in BALB/c mouse assessed as reduction in tumor weight at 100 mg/kg, iv once daily for 25 consecutive day after 2 weeks of cells injection relative to control; type: functional; details: MIA PaCa-2, 600 h, time 25 day
[22] = test system: MIA PaCa-2; experiment: Induction of cell arrest in human MIA PaCa-2 cells assessed as accumulation of cells at S phase at 500 nM measured after 96 hrs by PI staining based flow cytometry (reference value: 16.8%); type: functional
[23] = test system: MIA PaCa-2; experiment: Induction of cell arrest in human MIA PaCa-2 cells assessed as viable cells at 25 nM measured after 4 days by Annexin V-FITC and propidium iodide (PI) staining based assay (reference value: 94.9%); type: functional; details: MIA PaCa-2, 96 h, time 4 day, read-out: Activity
[24] = test system: MIA PaCa-2; experiment: Induction of cell arrest in human MIA PaCa-2 cells assessed as accumulation of cells at G2 phase at 50 nM measured after 96 hrs by PI staining based flow cytometry (reference value: 11.2%); type: functional
[25] = Toxicity in BALB/c mouse xenografted with human MIA PaCa-2 cells assessed as pathological change in kidney at 25 to 100 mg/kg, iv once daily for 25 consecutive day after 2 weeks of cells injection by H and E staining based optical microscopic analysis; type: organism-based; details: in vivo, 336 h, dose 25-100 mg/kg
[26] = test system: MIA PaCa-2; experiment: Reduction of protein complexes of mitochondrial electron transport chain in human MIA PaCa-2 cells reduction in NDUFB8 protein level by Western blot analysis; type: functional, cell-based; details: dose 0.001-5 µM
[27] = test system: MIA PaCa-2; experiment: Induction of cell arrest in human MIA PaCa-2 cells assessed as early apoptotic cells at 500 nM measured after 4 days by Annexin V-FITC and propidium iodide (PI) staining based assay (reference value: 1.07%); type: functional; details: time 4 day
[28] = test system: MIA PaCa-2; experiment: Induction of cell arrest in human MIA PaCa-2 cells assessed as early apoptotic cells at 200 nM measured after 4 days by Annexin V-FITC and propidium iodide (PI) staining based assay (reference value: 1.07%); type: functional; details: time 4 day
[29] = test system: MIA PaCa-2; experiment: Inhibition of RNA pol III in human MIA PaCa-2 cells assessed as effect on 5S RNA level at 0.1 to 1 uM measured after 12 hrs by RT-qPCR analysis; type: cell-based; details: dose 0.1-1 µM
[30] = test system: MIA PaCa-2; experiment: Induction of cell arrest in human MIA PaCa-2 cells assessed as accumulation of cells at G2 phase at 25 nM measured after 96 hrs by PI staining based flow cytometry (reference value: 11.2%); type: functional
[31] = test system: MIA PaCa-2; experiment: Antiproliferative activity against human MIA PaCa-2 cells assessed as cell viability measured after 168 hrs incubation by SRB assay; type: functional, cell-based; details: MIA PaCa-2, 168 h

IC50 [31]: 5 nM
Structure (SMILES): CCN(CC)C(=O)[C@@H](C)Oc1cc2oc(=O)cc(-c3ccccc3C)c2cc1F
Activity [1]: 1.28% | Activity [2]: 0.57% | Activity [3]: Dose-Dependent Effect | Activity [4]: 15.4% | Activity [5]: Active | IC50 [6]: 404 nM | Activity [7]: Non-Toxic | Activity [8]: inactive | Activity [9]: 67.1% | inhibition [10]: Active | Activity [11]: Dose-Dependent Effect | inhibition [12]: inactive | Activity [13]: Dose-Dependent Effect | viability at 0.2 µM [14]: 94.2% | Activity [15]: 0.82% | viability at 0.1 µM [16]: 94.9% | Activity [17]: Active | Activity [18]: 63.4% | Activity [19]: 17% | Activity [20]: Non-Toxic | inhibition in vivo at 100 mg/kg [21]: 64.5% | Activity [22]: 17.6% | viability at 0.025 µM [23]: 94.5% | Activity [24]: 10.4% | Activity [25]: Non-Toxic | Activity [26]: Dose-Dependent Effect | Activity [27]: 0.77% | Activity [28]: 1.06% | inhibition [29]: inactive | Activity [30]: 12.6%
